PubChem BioAssay (NCI)
“And” between values parts separate entries of the source, which are not always exact repeats. Equal entries are not always repeated.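 How tested: cells in 96-well plates exposed to compound for 48 hours at five concentrations. GI50: concentration for 50% inhibition of growth. TGI is the concentration that stops growth completely.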

What was measured:
Assay in all cases: NCI tumour cell line growth inhibition, 48 h
[1] = test system: P388/ADR leukemia
[2] = test system: SN12K1 renal
[3] = test system: RXF-631 renal

C=C1C(=O)O[C@H]2[C@H]1[C@@H](OC(=O)C=C(C)C)CC1=C[C@@H](C[C@@]3(C)O[C@@H]23)OC1=O
TGI [1]: 1120 µM and 1250 µM
GI50 [2]: 17.6 µM
TGI [2]: 21.3 µM and 35.5 µM

O=C1NC(=O)C(CCO)(c2ccccc2)C(=O)N1
TGI [2]: > 100 µM

CC(=O)OCC1OC(Nc2ncc(-c3ccc(C)cc3)s2)C(OC(C)=O)C(OC(C)=O)C1OC(C)=O (stereo not given)
TGI [1]: > 94.1 µM
TGI [2]: > 100 µM

CCOC(=O)C(N)CSC(=O)NC (stereo not given)
TGI [1]: 104 µM
TGI [2]: 112 µM

CCOC(=O)C(N=Nc1ccc(S(N)(=O)=O)cc1)C(C)=O (stereo not given)
TGI [3]: > 100 µM

CCN1CCN(c2ccc(Nc3ccnc4ccc5nn(C)nc5c34)cc2)CC1
TGI [3]: 23.9 µM

COC(=O)C1OC(Oc2cc(O)c3c(=O)cc(-c4ccc(O)cc4)oc3c2)C(O)C(O)C1O (stereo not given)
TGI [1]: > 100 µM
TGI [2]: > 100 µM

OCC1OC(n2cnc3c2NC=NC[C@H]3O)C(O)C1O (stereo not given in full)
TGI [1]: > 450 µM
TGI [2]: > 450 µM

O=c1cc(-c2ccccc2)[nH]c2cc3c(cc12)OCO3
TGI [3]: > 100 µM
